Data set [1] can be described thus: aqueous equilibrium solubility by HPLC. It is filed as physicochemical. Conditions: for pH of the solubility solution: checked with pH paper; for solubility compared to malate salt of Compound 1: comparison in words; for aqueous solubility: distilled water, ambient temperature (about 25° C.), 24 hours, HPLC. Here is the method:
The HPLC method used to determine aqueous equilibrium solubility is outlined in Table 32.
HPLC solubility determination about 5 mg of each salt was added to a vial with distilled water (1 mL). These were stirred at ambient temperature (about 25° C.) for 24 hours. The solution was isolated by filtration through a 0.2 μm PTFE filter and was analyzed by HPLC for concentration. The pH of the solutions was checked with pH paper.

Data set [2] in a line: Dynamic Vapor Sorption (DVS) hygroscopicity. Format: physicochemical. Conditions: for XRPD analysis of the post DVS sample: physical form after DVS cycle; for hygroscopicity, European Pharmacopoeia classification: weight increase at 80% RH (25° C.). As to the method:
As used herein “the European Pharmacopoeia classification” is a system whereby a chemical Compound 1s classified based on hygroscopicity. The classification is determined according to Table 2: [table] Dynamic Vapor Sorption (DVS) was performed using a Hiden Analytical Instruments IGAsorp Vapor Sorption Balance. Approximately 30 mg of sample was placed into a wire mesh vapor sorption balance pan, loaded into the IGAsorp vapor sorption balance, and held at 25° C.±0.1° C. The sample was subjected to a step profile from 0 to 90% RH at 10% increments, followed by desorption from […] to 0% RH at 10% increments. The equilibrium criterion was set to 99.0% step completion within a minimum of 60 minutes and a maximum of 5 hours for each increment. The weight change during the sorption cycle was monitored, allowing for the hygroscopic nature of the sample to be determined. The data collection interval was in seconds.

The conditions of data set [3]: both forms of Compound 1 (S)-malate; comparison value, source not stated; cited from earlier work.
Data set [4] in a line: humidity stress at 40° C./75% relative humidity. Conditions: about 7 days. It is filed as physicochemical.
Data set [5] is described as follows: initial development experiments (BCS classification, solubility, permeability). It is filed as physicochemical. Conditions: free base.
Setting [6] is: listed as Compound 1 isethionate monohydrate.

≈ marks a conversion by molar mass, not a printed value. Where a name gives a salt, the structure may show the parent alone.

The source of these data is patent publication US11731941B2 (Exelixis, Inc., priority 2017, dated 2023).

Usually aqueous solubility stands for the concentration that dissolves in the medium under given conditions.

`COc1cc2nccc(Oc3ccc(NC(=O)C4(C(=O)Nc5ccc(F)cc5)CC4)cc3)c2cc1OC` [Form 27, N-{4-[(6,7-dimethoxyquinolin-4-yl)oxy]phenyl}-N′-(4-fluorophenyl) cyclopropane-1,1-dicarboxamide]: in data set [1] (setting [6]), the “pH of the solubility solution” value is given as “about 2”, the “solubility compared to malate salt of Compound 1” value was “much higher solubility” and the aqueous solubility was 195 µg/mL (≈ 389 µM). The “plateau of water content between 10-50% RH” value in data set [2] (DVS isotherm, 1 mol. eq.) is “about 3.0±0.1 % w/w”. In addition, the “total weight gain between 20% RH and 80% RH” value in data set [2] (DVS, 25° C.) is on record as “about 2.4 % w/w”. Also, the “XRPD analysis of the post DVS sample” value in data set [2] is given as “remained unchanged”. In addition, the “hygroscopicity, European Pharmacopoeia classification” value in data set [2] (setting [6]) was “hygroscopic”.

In the case of `COc1cc2nccc(Oc3ccc(NC(=O)C4(C(=O)Nc5ccc(F)cc5)CC4)cc3)c2cc1OC` [Form 20, N-{4-[(6,7-dimethoxyquinolin-4-yl)oxy]phenyl}-N′-(4-fluorophenyl) cyclopropane-1,1-dicarboxamide], in data set [1] (listed as Compound 1 glutarate), the “pH of the solubility solution” value is listed as “about 3” and the aqueous solubility was 16 µg/mL (≈ 31.9 µM). Further, the “total weight gain between 0% RH and 80% RH” value in data set [2] (DVS, 25° C., listed as Compound 1 glutarate) is recorded as 0.08 % w/w. In addition, the “hygroscopicity, European Pharmacopoeia classification” value in data set [2] (listed as Compound 1 glutarate) is “non-hygroscopic”.

Regarding `COc1cc2nccc(Oc3ccc(NC(=O)C4(C(=O)Nc5ccc(F)cc5)CC4)cc3)c2cc1OC` [Compound 1 (S)-malate, S-malate salt of N-{4-[(6,7-dimethoxyquinolin-4-yl)oxy]phenyl}-N′-(4-fluorophenyl) cyclopropane-1,1-dicarboxamide], the “hygroscopicity weight gain of comparator” value in data set [3] is on record as “about 0.4 % w/w”.

Take `COc1cc2nccc(Oc3ccc(NC(=O)C4(C(=O)Nc5ccc(F)cc5)CC4)cc3)c2cc1OC` [Form 3, N-{4-[(6,7-dimethoxyquinolin-4-yl)oxy]phenyl}-N′-(4-fluorophenyl) cyclopropane-1,1-dicarboxamide]: in data set [4], the “XRPD after humidity stressing” value was “no form change” and the “weight loss after humidity stressing” value is reported as 43.17%.

In the case of `COc1cc2nccc(Oc3ccc(NC(=O)C4(C(=O)Nc5ccc(F)cc5)CC4)cc3)c2cc1OC` [Compound 1, N-{4-[(6,7-dimethoxyquinolin-4-yl)oxy]phenyl}-N′-(4-fluorophenyl) cyclopropane-1,1-dicarboxamide], the BCS class entry in data set [5] is reported as “BCS class II”. In addition, in data set [5] (in water), the “solubility” value is on record as “low solubility”. Also, in data set [4], the “% Weight Change” value is recorded as −0.94% and the “XRPD after humidity stressing” value is recorded as “Form 1”.

For `COc1cc2nccc(Oc3ccc(NC(=O)C4(C(=O)Nc5ccc(F)cc5)CC4)cc3)c2cc1OC` [Form 14, N-{4-[(6,7-dimethoxyquinolin-4-yl)oxy]phenyl}-N′-(4-fluorophenyl) cyclopropane-1,1-dicarboxamide], in data set [1] (listed as Compound 1 pyruvate), the “pH of the solubility solution” value is listed as “about 3”, the “solubility compared to malate salt of Compound 1” value was “higher solubility” and the aqueous solubility entry is “about 0.133 mg/mL”. For the same molecule, the “total weight gain between 0% RH and 80% RH” value in data set [2] (DVS, 25° C., listed as Compound 1 pyruvate) is on record as 0.10 % w/w. Besides, the “XRPD analysis of the post DVS sample” value in data set [2] is given as “remained unchanged”. For the same molecule, the “hygroscopicity, European Pharmacopoeia classification” value in data set [2] (listed as Compound 1 pyruvate) is “non-hygroscopic”.
